Assay results: PubChem BioAssay (NCI)
Where “and” joins values, the source holds several entries; their conditions need not be identical. Equal entries are not always repeated.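 Values below derive from 48-hour exposures of cells grown in 96-well plates, with endpoints linearly interpolated between the two concentrations bracketing the appropriate inhibition level. TGI is the concentration that stops growth completely.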

Assays:
Experiment in all cases: NCI anticancer screen, dose series, 48 h
RPMI-8226 leukemia = test system: RPMI-8226 leukemia
NCI-H23 lung = test system: NCI-H23 lung
A498 renal = test system: A498 renal
MCF7 breast = test system: MCF7 breast
UACC-62 melanoma = test system: UACC-62 melanoma
EKVX NSCLC = test system: EKVX NSCLC
NCI/ADR-RES ovarian = test system: NCI/ADR-RES ovarian
NCI-H460 lung = test system: NCI-H460 lung
COLO 205 colon = test system: COLO 205 colon
HOP-92 NSCLC = test system: HOP-92 NSCLC
T-47D breast = test system: T-47D breast
SK-OV-3 ovarian = test system: SK-OV-3 ovarian
M14 melanoma = test system: M14 melanoma
HT29 colon = test system: HT29 colon
OVCAR-4 ovarian = test system: OVCAR-4 ovarian
ACHN renal = test system: ACHN renal
K-562 leukemia = test system: K-562 leukemia
KM12 colon = test system: KM12 colon
CAKI-1 renal = test system: CAKI-1 renal
NCI-H522 lung = test system: NCI-H522 lung
MDA-MB-231 breast = test system: MDA-MB-231 breast
CCRF-CEM leukemia = test system: CCRF-CEM leukemia
SK-MEL-28 melanoma = test system: SK-MEL-28 melanoma
SK-MEL-2 melanoma = test system: SK-MEL-2 melanoma
OVCAR-3 ovarian = test system: OVCAR-3 ovarian
SF-539 CNS = test system: SF-539 CNS
HCT-15 colon = test system: HCT-15 colon
OVCAR-8 ovarian = test system: OVCAR-8 ovarian
MDA-MB-435 = test system: MDA-MB-435
HS 578T breast = test system: HS 578T breast
SN12C renal = test system: SN12C renal
HCT-116 colon = test system: HCT-116 colon
SNB-19 CNS = test system: SNB-19 CNS
A549 NSCLC = test system: A549 NSCLC
LOX IMVI melanoma = test system: LOX IMVI melanoma
HOP-62 NSCLC = test system: HOP-62 NSCLC
IGROV1 ovarian = test system: IGROV1 ovarian
PC-3 prostate = test system: PC-3 prostate
SF-295 CNS = test system: SF-295 CNS
UO-31 renal = test system: UO-31 renal
SR leukemia = test system: SR leukemia
786-0 renal = test system: 786-0 renal
MALME-3M melanoma = test system: MALME-3M melanoma
NCI-H226 lung = test system: NCI-H226 lung
OVCAR-5 ovarian = test system: OVCAR-5 ovarian
SK-MEL-5 melanoma = test system: SK-MEL-5 melanoma
U251 CNS = test system: U251 CNS
DU-145 prostate = test system: DU-145 prostate
UACC-257 melanoma = test system: UACC-257 melanoma
SNB-75 CNS = test system: SNB-75 CNS
TK-10 renal = test system: TK-10 renal
HCC-2998 colon = test system: HCC-2998 colon
SF-268 CNS = test system: SF-268 CNS
RXF 393 renal = test system: RXF 393 renal
MOLT-4 leukemia = test system: MOLT-4 leukemia
MDA-N = test system: MDA-N
HL-60(TB) leukemia = test system: HL-60(TB) leukemia
SW-620 colon = test system: SW-620 colon
BT-549 breast = test system: BT-549 breast

CN(C)CC1COC2Cc3ccccc3C1O2 (stereo unspecified)
TGI (RPMI-8226 leukemia): > 100 µM | TGI (NCI-H23 lung): > 100 µM | TGI (A498 renal): > 100 µM | TGI (MCF7 breast): > 100 µM | TGI (UACC-62 melanoma): > 100 µM | TGI (EKVX NSCLC): > 100 µM | TGI (NCI/ADR-RES ovarian): > 100 µM | TGI (NCI-H460 lung): > 100 µM | TGI (COLO 205 colon): > 100 µM | TGI (HOP-92 NSCLC): > 100 µM | TGI (T-47D breast): > 100 µM | TGI (SK-OV-3 ovarian): > 100 µM | TGI (M14 melanoma): > 100 µM | TGI (HT29 colon): > 100 µM | TGI (OVCAR-4 ovarian): > 100 µM | TGI (ACHN renal): > 100 µM | TGI (K-562 leukemia): > 100 µM | TGI (KM12 colon): > 100 µM | TGI (CAKI-1 renal): > 100 µM | TGI (NCI-H522 lung): > 100 µM | TGI (MDA-MB-231 breast): > 100 µM | TGI (CCRF-CEM leukemia): > 100 µM | TGI (SK-MEL-28 melanoma): > 100 µM | TGI (SK-MEL-2 melanoma): > 100 µM | TGI (OVCAR-3 ovarian): > 100 µM | TGI (SF-539 CNS): > 100 µM | TGI (HCT-15 colon): > 100 µM | TGI (OVCAR-8 ovarian): > 100 µM | TGI (MDA-MB-435): > 100 µM | TGI (HS 578T breast): > 100 µM | TGI (SN12C renal): > 100 µM | TGI (HCT-116 colon): > 100 µM | TGI (SNB-19 CNS): > 100 µM | TGI (A549 NSCLC): > 100 µM | TGI (LOX IMVI melanoma): > 100 µM | TGI (HOP-62 NSCLC): > 100 µM | TGI (IGROV1 ovarian): > 100 µM | TGI (PC-3 prostate): > 100 µM | TGI (SF-295 CNS): > 100 µM | TGI (UO-31 renal): > 100 µM | TGI (SR leukemia): > 100 µM | TGI (786-0 renal): > 100 µM | TGI (MALME-3M melanoma): > 100 µM | TGI (NCI-H226 lung): > 100 µM | TGI (OVCAR-5 ovarian): > 100 µM | TGI (SK-MEL-5 melanoma): > 100 µM | TGI (U251 CNS): > 100 µM | TGI (DU-145 prostate): > 100 µM | TGI (UACC-257 melanoma): > 100 µM | TGI (SNB-75 CNS): 75.7 µM and 94.5 µM | TGI (TK-10 renal): > 100 µM | TGI (HCC-2998 colon): > 100 µM | TGI (SF-268 CNS): > 100 µM | TGI (RXF 393 renal): > 100 µM | TGI (MOLT-4 leukemia): > 100 µM | TGI (MDA-N): > 100 µM | TGI (HL-60(TB) leukemia): > 100 µM

CCCCOC(=O)NC(Nc1cccc(C(F)(F)F)c1)(C(F)(F)F)C(F)(F)F
TGI (RPMI-8226 leukemia): 61.5 µM | TGI (NCI-H23 lung): > 100 µM | TGI (A498 renal): > 100 µM | TGI (MCF7 breast): > 100 µM | TGI (UACC-62 melanoma): > 100 µM | TGI (EKVX NSCLC): > 100 µM | TGI (NCI/ADR-RES ovarian): > 100 µM | TGI (NCI-H460 lung): > 100 µM | TGI (COLO 205 colon): > 100 µM | TGI (HOP-92 NSCLC): 64.7 µM | TGI (T-47D breast): 45.3 µM | TGI (M14 melanoma): > 100 µM | TGI (HT29 colon): > 100 µM | TGI (OVCAR-4 ovarian): > 100 µM | TGI (ACHN renal): > 100 µM | TGI (K-562 leukemia): > 100 µM | TGI (KM12 colon): > 100 µM | TGI (SW-620 colon): > 100 µM | TGI (CAKI-1 renal): > 100 µM | TGI (NCI-H522 lung): > 100 µM | TGI (MDA-MB-231 breast): > 100 µM | TGI (CCRF-CEM leukemia): > 100 µM | TGI (SK-MEL-28 melanoma): > 100 µM | TGI (SK-MEL-2 melanoma): 99.1 µM | TGI (OVCAR-3 ovarian): > 100 µM | TGI (SF-539 CNS): > 100 µM | TGI (HCT-15 colon): > 100 µM | TGI (OVCAR-8 ovarian): > 100 µM | TGI (MDA-MB-435): > 100 µM | TGI (HS 578T breast): > 100 µM | TGI (SN12C renal): > 100 µM | TGI (HCT-116 colon): > 100 µM | TGI (SNB-19 CNS): > 100 µM | TGI (A549 NSCLC): > 100 µM | TGI (LOX IMVI melanoma): > 100 µM | TGI (HOP-62 NSCLC): > 100 µM | TGI (IGROV1 ovarian): > 100 µM | TGI (PC-3 prostate): > 100 µM | TGI (SF-295 CNS): > 100 µM | TGI (UO-31 renal): > 100 µM | TGI (SR leukemia): 60.4 µM | TGI (786-0 renal): > 100 µM | TGI (MALME-3M melanoma): > 100 µM | TGI (NCI-H226 lung): > 100 µM | TGI (OVCAR-5 ovarian): > 100 µM | TGI (SK-MEL-5 melanoma): > 100 µM | TGI (U251 CNS): > 100 µM | TGI (DU-145 prostate): > 100 µM | TGI (UACC-257 melanoma): > 100 µM | TGI (SNB-75 CNS): > 100 µM | TGI (TK-10 renal): > 100 µM | TGI (SF-268 CNS): > 100 µM | TGI (RXF 393 renal): > 100 µM | TGI (MOLT-4 leukemia): > 100 µM | TGI (MDA-N): > 100 µM | TGI (HL-60(TB) leukemia): 56.2 µM

Cc1ccc(C(=O)Nc2ccc(S(=O)(=O)O)c3cc(S(=O)(=O)O)cc(S(=O)(=O)O)c23)cc1NC(=S)Nc1cc(C(=O)Nc2ccc(S(=O)(=O)O)c3cc(S(=O)(=O)O)cc(S(=O)(=O)O)c23)ccc1C
TGI (RPMI-8226 leukemia): > 75 µM | TGI (NCI-H23 lung): > 75 µM | TGI (A498 renal): > 75 µM | TGI (MCF7 breast): > 75 µM | TGI (UACC-62 melanoma): > 75 µM | TGI (BT-549 breast): > 75 µM | TGI (NCI-H460 lung): > 75 µM | TGI (M14 melanoma): > 75 µM | TGI (HT29 colon): > 75 µM | TGI (OVCAR-4 ovarian): > 75 µM | TGI (ACHN renal): > 75 µM | TGI (K-562 leukemia): > 75 µM | TGI (SW-620 colon): > 75 µM | TGI (CAKI-1 renal): > 75 µM | TGI (NCI-H522 lung): > 75 µM | TGI (MDA-MB-231 breast): > 75 µM | TGI (CCRF-CEM leukemia): > 75 µM | TGI (SK-MEL-28 melanoma): > 75 µM | TGI (SK-MEL-2 melanoma): > 75 µM | TGI (OVCAR-3 ovarian): > 75 µM | TGI (HCT-15 colon): > 75 µM | TGI (OVCAR-8 ovarian): > 75 µM | TGI (MDA-MB-435): > 75 µM | TGI (SN12C renal): > 75 µM | TGI (HCT-116 colon): > 75 µM | TGI (SNB-19 CNS): > 75 µM | TGI (A549 NSCLC): > 75 µM | TGI (LOX IMVI melanoma): > 75 µM | TGI (HOP-62 NSCLC): > 75 µM | TGI (IGROV1 ovarian): > 75 µM | TGI (PC-3 prostate): > 75 µM | TGI (UO-31 renal): > 75 µM | TGI (SR leukemia): > 75 µM | TGI (786-0 renal): > 75 µM | TGI (MALME-3M melanoma): > 75 µM | TGI (NCI-H226 lung): > 75 µM | TGI (OVCAR-5 ovarian): > 75 µM | TGI (SK-MEL-5 melanoma): > 75 µM | TGI (U251 CNS): > 75 µM | TGI (DU-145 prostate): > 75 µM | TGI (UACC-257 melanoma): > 75 µM | TGI (SNB-75 CNS): > 75 µM | TGI (TK-10 renal): > 75 µM | TGI (HCC-2998 colon): > 75 µM | TGI (SF-268 CNS): > 75 µM | TGI (MOLT-4 leukemia): > 75 µM | TGI (MDA-N): > 75 µM | TGI (HL-60(TB) leukemia): > 75 µM
